Measured values published in the NIST ThermoML archive (doi:10.1016/j.jct.2015.12.025).
± gives the expanded uncertainty stated by the source.

Assays:
[1] = xn = mol fraction of the nth substance listed; conditions: 102 kPa, Liquid, Vibrating tube method
[2] = refractive index (Na D-line) (dimensionless); xn = mol fraction of the nth substance listed; conditions: 102 kPa, Liquid, Standard Abbe refractometry

C[Si]1(CCC(F)(F)F)O[Si](C)(CCC(F)(F)F)O[Si](C)(CCC(F)(F)F)O1 (stereo not given) + COc1ccccc1
Conditions | mass density, 308.15 K [kg/m3] | mass density, 313.15 K [kg/m3] | mass density, 318.15 K [kg/m3] | mass density, 323.15 K [kg/m3] | refractive index, 308.15 K | refractive index, 313.15 K | refractive index, 318.15 K | refractive index, 323.15 K
[1], x1 = 0.0502 | 1018.9 ± 1 | 1013.91 ± 1 | 1008.94 ± 1 | 1003.9 ± 1 | – | – | – | –
[1], x1 = 0.0999 | 1050.1 ± 1 | 1044.97 ± 1 | 1039.74 ± 1 | 1034.53 ± 1 | – | – | – | –
[1], x1 = 0.15 | 1076.1 ± 1 | 1070.73 ± 1 | 1065.35 ± 1 | 1059.95 ± 1 | – | – | – | –
[1], x1 = 0.1999 | 1097.79 ± 1 | 1092.31 ± 1 | 1086.77 ± 1 | 1081.24 ± 1 | – | – | – | –
[1], x1 = 0.2501 | 1116.38 ± 1 | 1110.76 ± 1 | 1105.11 ± 1 | 1099.47 ± 1 | – | – | – | –
[1], x1 = 0.2998 | 1132.25 ± 1 | 1126.52 ± 1 | 1120.84 ± 1 | 1115.01 ± 1 | – | – | – | –
[1], x1 = 0.3498 | 1146.05 ± 1 | 1140.29 ± 1 | 1134.47 ± 1 | 1128.62 ± 1 | – | – | – | –
[1], x1 = 0.4001 | 1158.32 ± 1 | 1152.45 ± 1 | 1146.5 ± 1 | 1140.45 ± 1 | – | – | – | –
[1], x1 = 0.4497 | 1169.15 ± 1 | 1163.11 ± 1 | 1156.93 ± 1 | 1151 ± 1 | – | – | – | –
[1], x1 = 0.4997 | 1178.65 ± 1 | 1172.56 ± 1 | 1166.57 ± 1 | 1160.21 ± 1 | – | – | – | –
[1], x1 = 0.5453 | 1186.4 ± 1 | 1180.31 ± 1 | 1174.14 ± 1 | 1168.04 ± 1 | – | – | – | –
[1], x1 = 0.6001 | 1194.94 ± 1 | 1188.71 ± 1 | 1182.53 ± 1 | 1176.37 ± 1 | – | – | – | –
[1], x1 = 0.6498 | 1201.9 ± 1 | 1195.72 ± 1 | 1189.43 ± 1 | 1183.1 ± 1 | – | – | – | –
[1], x1 = 0.6995 | 1208.15 ± 1 | 1201.84 ± 1 | 1195.66 ± 1 | 1189.14 ± 1 | – | – | – | –
[1], x1 = 0.7502 | 1214.01 ± 1 | 1207.72 ± 1 | 1201.45 ± 1 | 1194.99 ± 1 | – | – | – | –
[1], x1 = 0.8 | 1219.27 ± 1 | 1212.9 ± 1 | 1206.52 ± 1 | 1200.09 ± 1 | – | – | – | –
[1], x1 = 0.8491 | 1223.97 ± 1 | 1217.59 ± 1 | 1211.19 ± 1 | 1204.79 ± 1 | – | – | – | –
[1], x1 = 0.8997 | 1228.56 ± 1 | 1222.13 ± 1 | 1215.62 ± 1 | 1209.23 ± 1 | – | – | – | –
[1], x1 = 0.9497 | 1232.67 ± 1 | 1226.23 ± 1 | 1219.73 ± 1 | 1213.21 ± 1 | – | – | – | –
[1], x1 = 1 | 1236.63 ± 1 | 1230.05 ± 1 | 1223.55 ± 1 | 1216.99 ± 1 | – | – | – | –
[2], x1 = 0.0502 | – | – | – | – | 1.48464 ± 0.00036 | 1.48208 ± 0.00036 | 1.47955 ± 0.00036 | 1.47695 ± 0.00036
[2], x1 = 0.0999 | – | – | – | – | 1.4658 ± 0.00035 | 1.4633 ± 0.00035 | 1.46089 ± 0.00035 | 1.45834 ± 0.00035
[2], x1 = 0.15 | – | – | – | – | 1.45042 ± 0.00035 | 1.44796 ± 0.00035 | 1.44565 ± 0.00035 | 1.44317 ± 0.00035
[2], x1 = 0.1999 | – | – | – | – | 1.43774 ± 0.00035 | 1.43532 ± 0.00035 | 1.43308 ± 0.00035 | 1.43068 ± 0.00035
[2], x1 = 0.2501 | – | – | – | – | 1.42699 ± 0.00035 | 1.42468 ± 0.00035 | 1.42242 ± 0.00035 | 1.42006 ± 0.00035
[2], x1 = 0.2998 | – | – | – | – | 1.41796 ± 0.00035 | 1.41563 ± 0.00035 | 1.41345 ± 0.00035 | 1.41113 ± 0.00035
[2], x1 = 0.3498 | – | – | – | – | 1.41011 ± 0.00035 | 1.40783 ± 0.00035 | 1.40566 ± 0.00035 | 1.40338 ± 0.00035
[2], x1 = 0.4001 | – | – | – | – | 1.40327 ± 0.00035 | 1.401 ± 0.00035 | 1.39886 ± 0.00035 | 1.39659 ± 0.00035
[2], x1 = 0.4497 | – | – | – | – | 1.39729 ± 0.00035 | 1.39509 ± 0.00035 | 1.39295 ± 0.00035 | 1.39069 ± 0.00035
[2], x1 = 0.4997 | – | – | – | – | 1.39198 ± 0.00035 | 1.3898 ± 0.00035 | 1.38766 ± 0.00035 | 1.38549 ± 0.00035
[2], x1 = 0.5453 | – | – | – | – | 1.38765 ± 0.00035 | 1.38551 ± 0.00035 | 1.38335 ± 0.00035 | 1.3812 ± 0.00035
[2], x1 = 0.6001 | – | – | – | – | 1.38297 ± 0.00035 | 1.38081 ± 0.00035 | 1.37871 ± 0.00035 | 1.37655 ± 0.00035
[2], x1 = 0.6498 | – | – | – | – | 1.37914 ± 0.00035 | 1.37703 ± 0.00035 | 1.37495 ± 0.00035 | 1.37279 ± 0.00035
[2], x1 = 0.6995 | – | – | – | – | 1.3757 ± 0.00035 | 1.37358 ± 0.00035 | 1.37151 ± 0.00035 | 1.36941 ± 0.00035
[2], x1 = 0.7502 | – | – | – | – | 1.3725 ± 0.00035 | 1.37039 ± 0.00035 | 1.36832 ± 0.00035 | 1.36625 ± 0.00035
[2], x1 = 0.8 | – | – | – | – | 1.3696 ± 0.00035 | 1.36751 ± 0.00035 | 1.36547 ± 0.00035 | 1.36338 ± 0.00035
[2], x1 = 0.8491 | – | – | – | – | 1.36697 ± 0.00035 | 1.36492 ± 0.00035 | 1.36288 ± 0.00035 | 1.36086 ± 0.00035
[2], x1 = 0.8997 | – | – | – | – | 1.3645 ± 0.00035 | 1.36245 ± 0.00035 | 1.36042 ± 0.00035 | 1.35837 ± 0.00035
[2], x1 = 0.9497 | – | – | – | – | 1.36221 ± 0.00035 | 1.36019 ± 0.00035 | 1.35818 ± 0.00035 | 1.35616 ± 0.00035
[2], x1 = 1 | – | – | – | – | 1.36011 ± 0.00035 | 1.35808 ± 0.00035 | 1.35609 ± 0.00035 | 1.35407 ± 0.00035
